Measured values reported in PMC2528830 (British Journal of Pharmacology, 2008).

What was measured:
GPR119 [1] = target: T1, GPR119 (Homo sapiens, UniProt Q8TDV5); test: cAMP accumulation in HEK293-GPR119 vs untransfected cells; type: cell-based
T1 sequence (Q8TDV5 1-335): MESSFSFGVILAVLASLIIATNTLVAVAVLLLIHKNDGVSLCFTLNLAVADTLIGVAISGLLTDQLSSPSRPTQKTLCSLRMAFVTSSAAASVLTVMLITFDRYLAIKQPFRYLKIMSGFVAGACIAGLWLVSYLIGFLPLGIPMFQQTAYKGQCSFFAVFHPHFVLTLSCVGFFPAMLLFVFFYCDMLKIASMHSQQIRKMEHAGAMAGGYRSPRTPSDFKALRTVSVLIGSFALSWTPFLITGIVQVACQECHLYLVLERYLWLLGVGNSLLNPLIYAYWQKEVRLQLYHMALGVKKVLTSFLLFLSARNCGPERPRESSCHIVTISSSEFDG

GPR119 [2] = target: T1, GPR119; test: insulin secretion at […] in RINm5f-GPR119 vs parental RINm5f cells; type: cell-based

Compound | EC50 (GPR119 [1]) | insulin secretion at 10 μM in RINm5f-GPR119 vs parental RINm5f cells (GPR119 [2])
CCCC[C@H]1CC[C@H](c2nc(-c3ccncc3)no2)CC1 [PSN375963] | 13.9 µM | –
CCCCCCCC/C=C\CCCCCCCC(=O)NCCO [oleoylethanolamide] | – | RINm5f cells transfected with human GPR119 (RIN-119 cells) responded to OEA and had an increased response to OLPC
